# Test results as given in US20060270640A1, “Method of preventing, medicating, and/or treating hypocalcemia of domestic mammal” (Mercian Corporation, priority 2004, published 2006).
# Legend:
# [1] = oral administration, high dose; cited from earlier work
# [2] = Dose-response test of 1,25-(OH)2D3, intravaginal vs intravenous: calcium, inorganic phosphorus, magnesium in plasma (Example 3); assay type: in vivo, cow
# Experimental: (§1) Hereinafter, the present invention will further be described with reference to Examples and Comparative Example. However, the present invention is not intended to be limited to them by any means. In the examples described below, a 1,25-(OH)2D3 concentration in plasma was determined using a radioimmunoassay kit (1,25-(OH)2D RIA kit, Immunodiagnostic Systems Limited, UK). The Ca concentrations, inorganic phosphorus (iP) concentrations, and magnesium (Mg) concentrations in plasma and urine were determined by orthocresolphthalein complexone (O-CPC), molybdenum (Mo), and xylidyl blue methods, respectively. A creatinine concentration in urine was determined by a Jaffe method. Calcium (Ca), inorganic phosphorus (iP), and magnesium (Mg) concentrations in urine were indicated in the ratios relative to creatinine (Cre) (Ca/Cre, iP/Cre, and Mg/Cre, respectively).
# (§2) The dose-response test of 1,25-(OH)2D3 by an intravaginal administration route was performed with five 3 to 9-year-old ovariectomized Holstein cows having body weights of 616 to 804 kg as test animals.
# (§3) The cows were hitched to a partition after and provided with 5.3 kg of timothy hay, 0.18 kg of alfalfa hay, 0.71 kg of beet pulp pellet, and 1.7 kg of commercially-available grain mix on a daily basis. The cows were measured on a DM basis and freely provided with water. A daily mineral intake was set to 48.4 g for calcium, 20.2 g of inorganic phosphorus, and 12.7 g for magnesium, which sufficiently exceeded the NRC recommendation.
# (§4) To the five cows, 1,25-(OH)2D3 was respectively administered at 0.125, 0.25, 0.5, and 1.0 μg/kg (by body weight) as an intravaginal dose level and 1.0 μg/kg (by body weight) as an intravenous injection dose level at an interval of 2 weeks or more according to a 5×5 Latin square design.
# (§5) The 1,25-(OH)2D3 (manufactured by Mercian Corporation) used was in the form of crystalline powder, which was dissolved in 99% ethanol at 200 μg/mL and cryopreserved at −20° C. until use.
# (§6) A drug composed of 5 mL of 20% ethanol solution containing 1,25-(OH)2D3 at 0.125, 0.25, 0.5, or 1.0 μg/kg (by body weight) was administered to a vaginal lumen using a Split Universal Sheath (IMV Int. CO., France) by a rectovaginal cavity method. The vulva was then bonded with an adhesive in order to prevent the 1,25-(OH)2D3 solution from being unintentionally excreted from the vaginal lumen. Intravenous administration was performed using a cannula (14-ga cannula for animals, manufactured by Nipro Medical Industries Ltd.) mounted in advance for the collection of a blood sample.
# A heparinized blood sample was collected through the cannula immediately before the administration of 1,25-(OH)2D3 (0 hour) and at 2, 4, 6, 12, 24, 48, 72, 96, and 120 hours after administration.
# Next, the blood was immediately centrifuged, and 1,25-(OH)2D3, calcium, inorganic phosphorus, and magnesium concentrations in plasma were determined.
# [3] = intravenous, four dose levels (30, 90, 270, and 600 μg); increase not directly related to dose; cited from earlier work
# [4] = Dose-response test of 1,25-(OH)2D3: Ca/Cre, iP/Cre, Mg/Cre in urine (Example 3); assay type: in vivo, cow; settings: for iP/Cre in urine: vs immediately before administration
# Experimental: as §1, §2, §3, §4, §5, §6
# Urine were collected by urethral catheterization simultaneously with the collection of blood samples from the cows that underwent the intravaginal administration of 1,25-(OH)2D3 at 0.125 and 1.0 μg/kg (by body weight) and the intravenous injection of 1,25-(OH)2D3at 1.0 μg/kg (by body weight), to determine creatinine, calcium, inorganic phosphorus, and magnesium concentrations in the urine. Plasma and urine samples were cryopreserved at −20° C. until analysis.
# [5] = 0 hour, intravaginal 0.125 μg/kg
# [6] = 0 hour, intravaginal 0.25 μg/kg
# [7] = 24 hours after intravaginal 0.125 μg/kg
# [8] = 24 hours after intravaginal 1.0 μg/kg
smiles,measurement,setting,value
"C=C1/C(=C\C=C2/CCC[C@]3(C)[C@@H]([C@H](C)CCCC(C)(C)O)CC[C@@H]23)C[C@@H](O)C[C@@H]1O [1,25-(OH)2D3, 1,25-dihydroxyvitamin D3]",proportional rise in the AUC in serum with an increase in a dose,[1],not observed
same,calcium concentration in plasma,[2]; [5],8.9 ± 0.5 mg/dL
same,inorganic phosphorus concentration in plasma,[2]; [5],5.3 ± 1.0 mg/dL
same,magnesium concentration in plasma,[2]; [5],2.2 ± 0.2 mg/dL
same,calcium concentration in plasma,[2]; [6],8.9 ± 0.4 mg/dL
same,inorganic phosphorus level in plasma,[2]; [6],4.7 ± 0.6 mg/dL
same,magnesium concentration in plasma,[2]; [6],2.0 ± 0.2 mg/dL
same,calcium concentration in plasma,"[2]; 0 hour, intravaginal 0.5 μg/kg",8.9 ± 0.2 mg/dL
same,inorganic phosphorus concentration in plasma,"[2]; 0 hour, intravaginal 0.5 μg/kg",5.3 ± 0.6 mg/dL
same,magnesium concentration in plasma,"[2]; 0 hour, intravaginal 0.5 μg/kg",2.2 ± 0.2 mg/dL
same,calcium concentration in plasma,"[2]; 0 hour, intravaginal 1.0 μg/kg",8.8 ± 0.7 mg/dL
same,inorganic phosphorus concentration in plasma,"[2]; 0 hour, intravaginal 1.0 μg/kg",5.4 ± 1.3 mg/dL
same,magnesium concentration in plasma,"[2]; 0 hour, intravaginal 1.0 μg/kg",2.1 ± 0.1 mg/dL
same,calcium concentration in plasma,"[2]; 0 hour, intravenous 1.0 μg/kg",8.8 ± 0.5 mg/dL
same,inorganic phosphorus concentration in plasma,"[2]; 0 hour, intravenous 1.0 μg/kg",5.2 ± 1.3 mg/dL
same,magnesium concentration in plasma,"[2]; 0 hour, intravenous 1.0 μg/kg",2.2 ± 0.2 mg/dL
same,inorganic phosphorus concentration in plasma,[2]; 12 hour after intravenous 1.0 μg/kg,7.2 ± 0.8 mg/dL
same,inorganic phosphorus level in plasma,[2]; 12 hours (start of 12 to 120 hours) after intravaginal 0.25 μg/kg,6.7 ± 0.9 mg/dL
same,magnesium concentration in plasma,[2]; 12 hours after intravaginal 0.5 μg/kg,1.9 ± 0.2 mg/dL
same,inorganic phosphorus concentration in plasma,[2]; [7],7.7 ± 0.8 mg/dL
same,magnesium concentration in plasma,[2]; [7],1.9 ± 0.1 mg/dL
same,magnesium concentration in plasma,[2]; 24 hours after intravaginal 0.25 μg/kg,1.8 ± 0.1 mg/dL
same,inorganic phosphorus concentration in plasma,[2]; 24 hours after intravaginal 0.5 μg/kg,7.9 ± 0.9 mg/dL
same,inorganic phosphorus concentration in plasma,[2]; [8],8.0 ± 1.2 mg/dL
same,magnesium concentration in plasma,[2]; [8],1.8 ± 0.2 mg/dL
same,magnesium concentration in plasma,[2]; 24 hours after intravenous 1.0 μg/kg,1.9 ± 0.3 mg/dL
same,"inorganic phosphorus concentration in plasma, peak",[2]; 24 hours after intravenous 1.0 μg/kg (start of peak period),9.1 ± 1.6 mg/dL
same,"calcium concentration in plasma, peak","[2]; 48 hours after intravaginal 0.125 μg/kg, significantly high 12 to 120 hours",11.1 ± 0.9 mg/dL
same,"calcium concentration in plasma, peak","[2]; 48 hours after intravaginal 0.25 μg/kg, significantly high 12 to 120 hours",11.2 ± 0.7 mg/dL
same,"calcium concentration in plasma, peak","[2]; 48 hours after intravaginal 0.5 μg/kg, significantly high 6 to 120 hours",11.5 ± 0.6 mg/dL
same,"calcium concentration in plasma, peak","[2]; 48 hours after intravaginal 1.0 μg/kg, significantly high 6 to 120 hours",12.0 ± 0.6 mg/dL
same,inorganic phosphorus level in plasma,[2]; 120 hours (end of 12 to 120 hours) after intravaginal 0.25 μg/kg,8.6 ± 1.2 mg/dL
same,magnesium concentration in plasma,[2]; 120 hours after intravaginal 0.125 μg/kg,1.8 ± 0.3 mg/dL
same,magnesium concentration in plasma,[2]; 120 hours after intravaginal 0.25 μg/kg,1.7 ± 0.2 mg/dL
same,magnesium concentration in plasma,[2]; 120 hours after intravaginal 0.5 μg/kg,1.7 ± 0.2 mg/dL
same,magnesium concentration in plasma,[2]; 120 hours after intravaginal 1.0 μg/kg,1.7 ± 0.4 mg/dL
same,magnesium concentration in plasma,[2]; 120 hours after intravenous 1.0 μg/kg,1.7 ± 0.2 mg/dL
same,"inorganic phosphorus concentration in plasma, peak",[2]; end of peak period 'from 24 hours to 12 hours' after intravenous 1.0 μg/kg,9.0 ± 1.2 mg/dL
same,"dose-relationship of changes in calcium, inorganic phosphorus and magnesium concentrations in plasma","[2]; intravaginal, four doses 0.125-1.0 μg/kg",no dose-relationship
same,"calcium concentration in plasma, peak",[2]; intravenous 1.0 μg/kg,11.5 ± 1.2 mg/dL
same,excretion of calcium into urine,[3],increases
same,"Ca/Cre, iP/Cre and Mg/Cre in urine",[4]; intravaginal 0.125 μg/kg,no influence
same,Ca/Cre in urine,"[4]; via the vagina 1.0 μg/kg, at 24 hours after administration",significantly rose
same,Mg/Cre in urine,"[4]; via the vagina 1.0 μg/kg, from 6 hours to 12 hours after administration",significantly high
same,iP/Cre in urine,"[4]; via the vagina 1.0 μg/kg, from 48 hours to 120 hours",significantly high
same,Mg/Cre in urine,"[4]; via the vein 1.0 μg/kg, at 6 hours after administration",significantly high
same,Ca/Cre in urine,"[4]; via the vein 1.0 μg/kg, at 12 hours and 24 hours after administration",significantly rose
same,iP/Cre in urine,"[4]; via the vein 1.0 μg/kg, from 72 hours to 120 hours",significantly high
